Results: ChEMBL document CHEMBL1201862, “PubChem BioAssay data set” (2004)
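Tested at 5 concentrations; 48 h exposure; 96-well plates; endpoints linearly interpolated, else capped at highest concentration. GI50: concentration for 50% inhibition of growth.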 Activity calls are given as the source filed them. Cut-off read from the data, not from the text of the source: active = GI50 up to about 1.1 µM and inactive = higher.

Assays:
Test in all cases: inhibition of tumour cell growth, NCI panel, 48 h
786-0 = tested on: 786-0
OVCAR-5 = tested on: OVCAR-5
RXF 393 = tested on: RXF 393
CAKI-1 = tested on: CAKI-1
SK-MEL-2 = tested on: SK-MEL-2
K562 = tested on: K562
RPMI-8226 = tested on: RPMI-8226
BT-549 = tested on: BT-549
T47D = tested on: T47D
M14 = tested on: M14
SF-268 = tested on: SF-268
NCI-H522 = tested on: NCI-H522
IGROV-1 = tested on: IGROV-1
SF-539 = tested on: SF-539
TK-10 = tested on: TK-10
KM12 = tested on: KM12
NCI-H460 = tested on: NCI-H460
CCRF-CEM = tested on: CCRF-CEM
MDA-N = tested on: MDA-N

Measured: GI50

O=[N+]([O-])c1ccc(NC(=S)Nc2ccccn2)cc1
inactive: 786-0 16.8 µM | OVCAR-5 27.7 µM | RXF 393 4.68 µM | CAKI-1 5.11 µM | SK-MEL-2 > 53.1 µM | K562 > 69.2 µM | RPMI-8226 > 100 µM | BT-549 > 92.3 µM | T47D 35.7 µM | M14 46.8 µM | SF-268 26.9 µM | NCI-H522 31.8 µM | IGROV-1 11.9 µM | SF-539 8.63 µM | TK-10 31.3 µM | KM12 10.3 µM | NCI-H460 23.3 µM | CCRF-CEM > 64.4 µM | MDA-N 91.8 µM

Cn1c(=O)[nH]c2nccnc2c1=O
inactive: 786-0 > 10 µM | OVCAR-5 > 10 µM | RXF 393 > 10 µM | CAKI-1 > 10 µM | SK-MEL-2 > 10 µM | K562 > 10 µM | RPMI-8226 > 10 µM | BT-549 > 10 µM | T47D > 10 µM | M14 > 10 µM | SF-268 > 10 µM | NCI-H522 > 10 µM | IGROV-1 > 10 µM | SF-539 > 10 µM | TK-10 > 10 µM | KM12 > 10 µM | NCI-H460 > 10 µM | CCRF-CEM > 10 µM | MDA-N > 10 µM

NC(Cc1ccccc1)C(=O)OCN1C(=O)C2C3C=CC(C2C1=O)C1C(=O)N(COC(=O)C(N)Cc2ccccc2)C(=O)C31 (centres undefined)
inactive: 786-0 35.7 µM | OVCAR-5 > 100 µM | RXF 393 > 100 µM | CAKI-1 > 100 µM | SK-MEL-2 22.6 µM | K562 28.5 µM | RPMI-8226 23.2 µM | BT-549 > 100 µM | T47D > 100 µM | M14 92 µM | SF-268 > 100 µM | NCI-H522 > 100 µM | IGROV-1 > 100 µM | SF-539 > 100 µM | TK-10 > 100 µM | NCI-H460 67.9 µM | CCRF-CEM 21.7 µM | MDA-N > 100 µM

O=S(=O)(O)n1ccnc1
inactive: 786-0 > 100 µM | OVCAR-5 > 100 µM | RXF 393 > 100 µM | CAKI-1 > 100 µM | SK-MEL-2 77.3 µM | K562 > 100 µM | RPMI-8226 > 100 µM | BT-549 > 100 µM | T47D > 100 µM | M14 > 100 µM | SF-268 > 100 µM | NCI-H522 > 100 µM | IGROV-1 > 100 µM | SF-539 > 100 µM | TK-10 > 100 µM | KM12 > 100 µM | NCI-H460 > 100 µM | MDA-N > 100 µM
